Tested on: uterine gene expression
Assay: Gene expression profiling (HGU133A) in the uterus of ovariectomized monkeys treated with estradiol, tamoxifen or raloxifene
Type: in vivo, cynomolgus monkeys (Macaca fascicularis)

O=C(c1ccc(OCCN2CCCCC2)cc1)c1c(-c2ccc(O)cc2)sc2cc(O)ccc12 [raloxifene]
1.0 fold: Fold change relative to OVX: Cytochrome c oxidase subunit via polypeptide 1 (uterus, OVX monkeys) | Fold change relative to OVX: H2A histone family, member Y (uterus, OVX monkeys) | Fold change relative to OVX: Histone H2A.F/Z variant (uterus, OVX monkeys) | Fold change relative to OVX: LDL receptor adaptor protein (uterus, OVX monkeys) | Fold change relative to OVX: Peroxiredoxin 1 (uterus, OVX monkeys) | Fold change relative to OVX: Solute carrier family 22 (organic cation transporter), member 1-like (uterus, OVX monkeys) | Fold change relative to OVX: Tenascin C (hexabrachion) (uterus, OVX monkeys) | Fold change relative to OVX: Thioredoxin interacting protein (uterus, OVX monkeys) | Fold change relative to OVX: Ubiquinol-cytochrome c reductase, Rieske iron-sulfur polypeptide 1 (uterus, OVX monkeys) | Fold change relative to SHAM control: ATPase, H+ transporting, lysosomal 38 kda, V0 subunit d isoform 1 (uterus, OVX monkeys) | Fold change relative to SHAM control: Chondroitin sulfate proteoglycan 2 (versican) (uterus, OVX monkeys) | Fold change relative to SHAM control: Fibroblast growth factor 2 (basic) (uterus, OVX monkeys)
1.5 fold: Fold change relative to OVX: Dermatopontin (uterus, OVX monkeys) | Fold change relative to OVX: Integrin, beta 5 (uterus, OVX monkeys) | Fold change relative to OVX: Pituitary tumour-transforming 1 interacting protein (uterus, OVX monkeys)
1.8 fold: Fold change relative to OVX: Collagen, type I, alpha 1 (uterus, OVX monkeys) | Fold change relative to OVX: Latent transforming growth factor beta binding protein 1 (uterus, OVX monkeys)
2.0 fold: Fold change relative to OVX: Fibroblast growth factor 2 (basic) (uterus, OVX monkeys) | Fold change relative to OVX: Insulin-like growth factor binding protein 5 (uterus, OVX monkeys)
1.2 fold: Fold change relative to OVX: Collagen, type V, alpha 1 (uterus, OVX monkeys) | Fold change relative to OVX: Collagen, type VI, alpha 3 (uterus, OVX monkeys) | Fold change relative to OVX: Cyclin D1 (PRAD1: parathyroid adenomatosis 1) (uterus, OVX monkeys) | Fold change relative to OVX: Heparan sulfate proteoglycan 2 (perlecan) (uterus, OVX monkeys) | Fold change relative to OVX: Phospholipid transfer protein (uterus, OVX monkeys) | Fold change relative to OVX: Procollagen-proline, 2-oxoglutarate 4-dioxygenase (proline 4-hydroxylase), alpha polypeptide II (uterus, OVX monkeys) | Fold change relative to OVX: Protein tyrosine kinase 9 (uterus, OVX monkeys) | Fold change relative to OVX: Stem cell growth factor; lymphocyte secreted C-type lectin (uterus, OVX monkeys)
only modest changes: Uterine expression changes: IGFBP 5, latent TGF beta binding protein 1, cysteine-rich angiogenic inducer 61 (cynomolgus monkey, in vivo)
approximately 2 fold: Uterine expression increase: insulin-like GF binding protein 2 and insulin-like GF 1 (compared with OVX controls)
2.2 fold: Fold change relative to OVX: LIM and senescent cell antigen-like domains 1 (uterus, OVX monkeys)
1.4 fold: Fold change relative to OVX: Chloride intracellular channel 4 (uterus, OVX monkeys) | Fold change relative to OVX: Chondroitin sulfate proteoglycan 2 (versican) (uterus, OVX monkeys) | Fold change relative to OVX: Collagen, type IV, alpha 2 (uterus, OVX monkeys) | Fold change relative to OVX: Fibulin 1 (uterus, OVX monkeys) | Fold change relative to OVX: Serine (or cysteine) proteinase inhibitor, clade H (heat shock protein 47), member 1, (collagen binding protein 1) (uterus, OVX monkeys) | Fold change relative to OVX: Wingless-type MMTV integration site family, member 2B (uterus, OVX monkeys)
downregulated: Uterine expression of the remaining signal transduction genes examined (tamoxifen: except for LDL receptor adaptor protein)
2.4 fold: Fold change relative to OVX: Biglycan (uterus, OVX monkeys) | Fold change relative to OVX: Nidogen (enactin) (uterus, OVX monkeys)
1.9 fold: Fold change relative to OVX: Collagen, type VIII, alpha 2 (uterus, OVX monkeys) | Fold change relative to OVX: Progesterone receptor (uterus, OVX monkeys)
0.5 fold: Fold change relative to SHAM control: ATPase, Na+/K+ transporting, beta 3 polypeptide (uterus, OVX monkeys) | Fold change relative to SHAM control: CDC28 protein kinase regulatory subunit 2 (uterus, OVX monkeys)
0.9 fold: Fold change relative to OVX: ATPase, Na+/K+ transporting, beta 3 polypeptide (uterus, OVX monkeys) | Fold change relative to OVX: Dishevelled associated activator of morphogenesis 1 (uterus, OVX monkeys) | Fold change relative to OVX: Four and a half LIM domains 2 (uterus, OVX monkeys) | Fold change relative to OVX: G1 to S phase transition 1 (uterus, OVX monkeys) | Fold change relative to OVX: Matrix metalloproteinase 19 (uterus, OVX monkeys) | Fold change relative to OVX: Wingless-type MMTV integration site family, member 16 (uterus, OVX monkeys) | Fold change relative to SHAM control: Biglycan (uterus, OVX monkeys) | Fold change relative to SHAM control: Cysteine-rich, angiogenic inducer, 61 (uterus, OVX monkeys)
0.8 fold: Fold change relative to OVX: CDC28 protein kinase regulatory subunit 2 (uterus, OVX monkeys) | Fold change relative to OVX: Calcium channel, voltage-dependent, beta 2 subunit (uterus, OVX monkeys) | Fold change relative to OVX: Catenin (cadherin-associated protein), alpha-like 1 (uterus, OVX monkeys) | Fold change relative to OVX: Mitogen-activated protein kinase kinase kinase kinase 4 (uterus, OVX monkeys) | Fold change relative to OVX: Secreted frizzled-related protein 4 (uterus, OVX monkeys) | Fold change relative to SHAM control: Chitinase 3-like 1 (cartilage glycoprotein-39) (uterus, OVX monkeys) | Fold change relative to SHAM control: Collagen, type IV, alpha 2 (uterus, OVX monkeys) | Fold change relative to SHAM control: Cytochrome c oxidase subunit via polypeptide 1 (uterus, OVX monkeys) | Fold change relative to SHAM control: Dermatopontin (uterus, OVX monkeys)
0.6 fold: Fold change relative to SHAM control: Collagen, type V, alpha 1 (uterus, OVX monkeys)
little or no effect: Effect on transporter, redox, and cell cycle genes in the uterus (relative to estradiol) (cynomolgus monkey, in vivo)
1.1 fold: Fold change relative to OVX: ATPase, H+ transporting, lysosomal 38 kda, V0 subunit d isoform 1 (uterus, OVX monkeys) | Fold change relative to OVX: Chitinase 3-like 1 (cartilage glycoprotein-39) (uterus, OVX monkeys) | Fold change relative to OVX: Cytochrome c oxidase subunit viia polypeptide 2 (liver) (uterus, OVX monkeys) | Fold change relative to OVX: Insulin-like growth factor binding protein 2, 36 kda (uterus, OVX monkeys) | Fold change relative to OVX: Laminin, beta 1 (uterus, OVX monkeys) | Fold change relative to OVX: Phosphatase and tensin homolog (mutated in multiple advanced cancers 1) (uterus, OVX monkeys) | Fold change relative to OVX: SET domain, bifurcated 1 (uterus, OVX monkeys) | Fold change relative to OVX: Solute carrier family 25 (mitochondrial carrier; adenine nucleotide translocator), member 5 (uterus, OVX monkeys) | Fold change relative to OVX: Testis Enhanced Gene Transcript (Bax Inhibitor 1) (uterus, OVX monkeys) | Fold change relative to SHAM control: Collagen, type VIII, alpha 2 (uterus, OVX monkeys) | Fold change relative to SHAM control: Cytochrome c oxidase subunit viia polypeptide 2 (liver) (uterus, OVX monkeys)
1.7 fold: Fold change relative to OVX: Cysteine-rich, angiogenic inducer, 61 (uterus, OVX monkeys) | Fold change relative to OVX: Growth associated protein 43 (uterus, OVX monkeys) | Fold change relative to OVX: Procollagen C-endopeptidase enhancer (uterus, OVX monkeys) | Fold change relative to OVX: SPARC-like 1 (mast9, hevin) (uterus, OVX monkeys) | Fold change relative to OVX: Secreted protein, acidic, cysteine-rich (osteonectin) (uterus, OVX monkeys) | Fold change relative to OVX: Transforming growth factor, beta-induced, 68 kda (uterus, OVX monkeys)
1.6 fold: Fold change relative to OVX: Osteoglycin (osteoinductive factor, mimecan) (uterus, OVX monkeys) | Fold change relative to OVX: Secreted frizzled-related protein 1 (uterus, OVX monkeys)
0.7 fold: Fold change relative to SHAM control: Chloride intracellular channel 4 (uterus, OVX monkeys) | Fold change relative to SHAM control: Collagen, type I, alpha 1 (uterus, OVX monkeys) | Fold change relative to SHAM control: Collagen, type VI, alpha 3 (uterus, OVX monkeys)
1.3 fold: Fold change relative to OVX: Cadherin 11, type 2, OB-cadherin (osteoblast) (uterus, OVX monkeys) | Fold change relative to OVX: Intercrine-alpha, mrna sequence (uterus, OVX monkeys) | Fold change relative to SHAM control: Cyclin D1 (PRAD1: parathyroid adenomatosis 1) (uterus, OVX monkeys)

— patent publication US20130040882A1, “USE OF FIBROBLAST GROWTH FACTOR FRAGMENTS” (NOVARTIS AG, priority 2003, published 2013)
